Results on seven molecules are retold here after patent publication US8394442B2, “Process for the preparation of a flavoring concentrate, and a flavoring concentrate” (SYMRISE AG, priority 2007, dated 2013).

Like-named read-outs stand apart in the source and are kept apart here.

Series [1] can be described thus: log Pow* calculated by Formula 2 from log Pow and the polarity parameter P′(x) of the ethanol/water mixture.
Series [2] can be described thus: log Pow: distribution coefficient between 1-octanol and water. The settings on record: 1-octanol/water.
Description: Log Pow*=log Pow*−x*P′(x)/log Pow Formula 2: • where log Pow is the decimal logarithm of the distribution coefficient of a substance between 1-octanol and water, • x is the resulting solvent proportion based on the total volume proportion, normalized as 1.0, and • P′(x) is the polarity parameter for the corresponding solvent for the solvent proportion x.
[3] abbreviates: solvent ethanol, proportion 10%.
Setting [4] is: solvent ethanol, proportion 30%.
Where [5] appears, read: solvent ethanol, proportion 40%.
The mark [6] stands for this setting: solvent ethanol, proportion 50%.
Setting [7] is: solvent ethanol, proportion 60%.
The mark [8] stands for this setting: solvent ethanol, proportion 70%.
The mark [9] stands for this setting: solvent ethanol, proportion 80%.
Where [10] appears, read: solvent ethanol, proportion 90%.
The mark [11] stands for this setting: solvent ethanol, proportion 100%.

With `CCCCCC(=O)OC` [Methylcapronate], the “log Pow* (P′ 2%)” value in series [1] (solvent ethanol, proportion 2%) is given as 2.21. For the same molecule, the “log Pow* (P′ 4%)” value in series [1] (solvent ethanol, proportion 4%) is on record as 2.13. Moreover, the “log Pow* (P′ 6%)” value in series [1] (solvent ethanol, proportion 6%) is on record as 2.05. Further, the “log Pow* (P′ 8%)” value in series [1] (solvent ethanol, proportion 8%) is on record as 1.98. Also, the “log Pow* (P′ 10%)” value in series [1] (setting [3]) is given as 1.91. The “log Pow* (P′ 30%)” value in series [1] (setting [4]) is recorded as 1.36. In addition, the “log Pow* (P′ 40%)” value in series [1] (setting [5]) is 1.15. For the same molecule, in series [1] (setting [6]), the “log Pow* (P′ 50%)” value was 0.98. Moreover, the “log Pow* (P′ 60%)” value in series [1] (setting [7]) was 0.84. Further, in series [1] (setting [8]), the “log Pow* (P′ 70%)” value is recorded as 0.72. In series [1] (setting [9]), the “log Pow* (P′ 80%)” value is 0.61. Moreover, the “log Pow* (P′ 90%)” value in series [1] (setting [10]) is 0.51. Besides, the “log Pow* (P′ 100%)” value in series [1] (setting [11]) was 0.43. Moreover, the “log Pow” value in series [2] is listed as 2.30.
As to `CS` [Methylmercaptan], in series [1] (solvent ethanol, proportion 2%), the “log Pow* (P′ 2%)” value was 0.34. In addition, the “log Pow* (P′ 4%)” value in series [1] (solvent ethanol, proportion 4%) is reported as 0.05. Besides, in series [1] (solvent ethanol, proportion 6%), the “log Pow* (P′ 6%)” value was −0.22. In addition, the “log Pow* (P′ 8%)” value in series [1] (solvent ethanol, proportion 8%) was −0.48. Also, the “log Pow* (P′ 10%)” value in series [1] (setting [3]) is reported as −0.73. Further, the “log Pow* (P′ 30%)” value in series [1] (setting [4]) is listed as −2.68. In addition, in series [1] (setting [5]), the “log Pow* (P′ 40%)” value is reported as −3.40. Moreover, the “log Pow* (P′ 50%)” value in series [1] (setting [6]) is −4.00. For the same molecule, in series [1] (setting [7]), the “log Pow* (P′ 60%)” value was −4.51. Further, the “log Pow* (P′ 70%)” value in series [1] (setting [8]) is −4.95. Besides, the “log Pow* (P′ 80%)” value in series [1] (setting [9]) was −5.33. For the same molecule, in series [1] (setting [10]), the “log Pow* (P′ 90%)” value is on record as −5.67. For the same molecule, the “log Pow* (P′ 100%)” value in series [1] (setting [11]) is reported as −5.97. Further, the “log Pow” value in series [2] came to 0.65.
Regarding `CCCSSC` [Methylpropyldisulfide], in series [1], the “log Pow* (P′ 2%)” value is on record as 2.76, the “log Pow* (P′ 4%)” value is 2.69, the “log Pow* (P′ 6%)” value is 2.63 and the “log Pow* (P′ 8%)” value is on record as 2.57. In series [1], the “log Pow* (P′ 10%)” value is 2.51, the “log Pow* (P′ 30%)” value is given as 2.06, the “log Pow* (P′ 40%)” value is listed as 1.90 and the “log Pow* (P′ 50%)” value is 1.76. For the same molecule, in series [1], the “log Pow* (P′ 60%)” value is listed as 1.64, the “log Pow* (P′ 70%)” value is 1.54, the “log Pow* (P′ 80%)” value was 1.46 and the “log Pow* (P′ 90%)” value is reported as 1.38. Moreover, the “log Pow* (P′ 100%)” value in series [1] was 1.31. For the same molecule, the “log Pow” value in series [2] was 2.83.
With `C=C(C)[C@@H]1CCC2=CC(=O)C[C@@H](C)[C@]2(C)C1` [Nootkatone], the “log Pow* (P′ 2%)” value in series [1] (solvent ethanol, proportion 2%) is 4.05. The “log Pow* (P′ 4%)” value in series [1] (solvent ethanol, proportion 4%) was 4.01. Besides, in series [1] (solvent ethanol, proportion 6%), the “log Pow* (P′ 6%)” value is given as 3.96. The “log Pow* (P′ 8%)” value in series [1] (solvent ethanol, proportion 8%) is listed as 3.92. Also, the “log Pow* (P′ 10%)” value in series [1] (setting [3]) is 3.88. In series [1] (setting [4]), the “log Pow* (P′ 30%)” value is listed as 3.57. For the same molecule, the “log Pow* (P′ 40%)” value in series [1] (setting [5]) was 3.46. Besides, the “log Pow* (P′ 50%)” value in series [1] (setting [6]) was 3.36. Besides, in series [1] (setting [7]), the “log Pow* (P′ 60%)” value is recorded as 3.28. For the same molecule, the “log Pow* (P′ 70%)” value in series [1] (setting [8]) is reported as 3.21. Also, the “log Pow* (P′ 80%)” value in series [1] (setting [9]) is 3.15. Further, in series [1] (setting [10]), the “log Pow* (P′ 90%)” value is 3.10. Besides, in series [1] (setting [11]), the “log Pow* (P′ 100%)” value was 3.05. Also, in series [2], the “log Pow” value was determined as 4.10.
Turning to `CCCCCCCC=O` [Octanal], in series [1], the “log Pow* (P′ 2%)” value is given as 2.96, the “log Pow* (P′ 4%)” value is listed as 2.90, the “log Pow* (P′ 6%)” value is 2.84 and the “log Pow* (P′ 8%)” value was 2.79. For the same molecule, in series [1], the “log Pow* (P′ 10%)” value is given as 2.73, the “log Pow* (P′ 30%)” value is given as 2.31, the “log Pow* (P′ 40%)” value was 2.16 and the “log Pow* (P′ 50%)” value is on record as 2.03. Besides, in series [1], the “log Pow* (P′ 60%)” value is given as 1.92, the “log Pow* (P′ 70%)” value is listed as 1.83, the “log Pow* (P′ 80%)” value is given as 1.75 and the “log Pow* (P′ 90%)” value was 1.67. Moreover, the “log Pow* (P′ 100%)” value in series [1] is on record as 1.61. Moreover, the “log Pow” value in series [2] is reported as 3.03.
With `CC(=O)/C=C/C1C(C)=CCCC1(C)C` (stereo not drawn) [alpha-ionone], the “log Pow* (P′ 2%)” value in series [1] (solvent ethanol, proportion 2%) is given as 3.81. Further, in series [1] (solvent ethanol, proportion 4%), the “log Pow* (P′ 4%)” value was 3.76. In addition, the “log Pow* (P′ 6%)” value in series [1] (solvent ethanol, proportion 6%) is listed as 3.71. Moreover, in series [1] (solvent ethanol, proportion 8%), the “log Pow* (P′ 8%)” value is reported as 3.67. Besides, the “log Pow* (P′ 10%)” value in series [1] (setting [3]) is 3.63. Moreover, the “log Pow* (P′ 30%)” value in series [1] (setting [4]) is reported as 3.30. For the same molecule, the “log Pow* (P′ 40%)” value in series [1] (setting [5]) is on record as 3.18. Also, in series [1] (setting [6]), the “log Pow* (P′ 50%)” value was 3.08. Also, in series [1] (setting [7]), the “log Pow* (P′ 60%)” value is reported as 2.99. Moreover, the “log Pow* (P′ 70%)” value in series [1] (setting [8]) is 2.92. Moreover, the “log Pow* (P′ 80%)” value in series [1] (setting [9]) is listed as 2.85. For the same molecule, the “log Pow* (P′ 90%)” value in series [1] (setting [10]) is on record as 2.80. For the same molecule, in series [1] (setting [11]), the “log Pow* (P′ 100%)” value is on record as 2.75. Moreover, the “log Pow” value in series [2] was 3.86.
In the case of `C/C=C/C(=O)C1=C(C)C=CCC1(C)C` [beta-damascenone], in series [1] (solvent ethanol, proportion 2%), the “log Pow* (P′ 2%)” value is listed as 4.35. Moreover, the “log Pow* (P′ 4%)” value in series [1] (solvent ethanol, proportion 4%) is given as 4.31. Besides, in series [1] (solvent ethanol, proportion 6%), the “log Pow* (P′ 6%)” value is on record as 4.27. The “log Pow* (P′ 8%)” value in series [1] (solvent ethanol, proportion 8%) was 4.23. Further, in series [1] (setting [3]), the “log Pow* (P′ 10%)” value is reported as 4.20. Also, the “log Pow* (P′ 30%)” value in series [1] (setting [4]) is 3.91. The “log Pow* (P′ 40%)” value in series [1] (setting [5]) is 3.80. Further, the “log Pow* (P′ 50%)” value in series [1] (setting [6]) is 3.71. Besides, the “log Pow* (P′ 60%)” value in series [1] (setting [7]) is reported as 3.64. Further, the “log Pow* (P′ 70%)” value in series [1] (setting [8]) is on record as 3.57. In addition, in series [1] (setting [9]), the “log Pow* (P′ 80%)” value is 3.52. In series [1] (setting [10]), the “log Pow* (P′ 90%)” value is recorded as 3.47. The “log Pow* (P′ 100%)” value in series [1] (setting [11]) is 3.42. Also, in series [2], the “log Pow” value is reported as 4.40.
